In experiment [1] the test system is Acinetobacter baumannii ATCC 19606. In words: Antibacterial assay (MIC), A. baumannii. The experiment is classed as cell-based. Conditions: ATCC19606, Table S32, positive control ciprofloxacin. The text has this: (§1) The bacteria Vibrio alginolyticus XSBZ14, Enterococcus faecalis ATCC 29212, Acinetobacter baumannii ATCC 19606, Escherichia coli ATCC 25922, Bacillus subtilis BS01, Klebsiella pneumoniae ATCC 13883, Exiguobacterium profundum Staphylococcus aureus ATCC 29213 and MRSA 107352 were used to measure antibacterial activity. The procedures of the antibacterial test were the same as Zhang. Ciprofloxacin was used as the positive control.

The test system of experiment [2] is Exiguobacterium profundum. In words: Antibacterial assay (MIC), E. profundum. The experiment is classed as cell-based. Conditions: Table S32, positive control ciprofloxacin.
Text: as §1

Experiment [3] deals with Enterococcus faecalis ATCC 29212. In words: Antibacterial assay (MIC), E. faecalis. The experiment is classed as cell-based. Conditions: ATCC29212, Table S32, positive control ciprofloxacin.
Text: as §1

The next experiment has as its system Bacillus subtilis BS01. In words: Antibacterial assay (MIC), B. subtilis. In kind it is cell-based. The settings on record: Table S32, positive control ciprofloxacin.
Text: as §1

Experiment [4] concerns Staphylococcus aureus ATCC 29213. In words: Antibacterial assay (MIC), S. aureus. The experiment is classed as cell-based. The settings on record: ATCC29213, Table S32, positive control ciprofloxacin.
Text: as §1

In a further experiment the test system is MRSA 107352. In words: Antibacterial assay (MIC), MRSA. In kind it is cell-based. The settings on record: Staphylococcus aureus, Table S32, positive control ciprofloxacin.
Text: as §1

Experiment [5] in a line: DPPH radical scavenging assay (antioxidant activity). The settings on record: Table S33, positive control ascorbic acid. The text has this:
The procedures of the DPPH radical scavenging test were the same as Zhong. Ascorbic acid was used as the positive control.
(Loss of DPPH colour is used to gauge radical scavenging.)

Experiment [6] concerns six bacteria (B. subtilis, E. profundum, E. faecalis, S. aureus, MRSA, A. baumannii). In words: Antibacterial assay, summary over the sensitive bacteria. In kind it is cell-based.
Text: as §1

From article PMC10971832, “New Phenol Derivatives from the Haima Cold Seep-Derived Fungus Aspergillus subversicolor CYH-17” (Marine Drugs, 2024) come the findings set out here.

Converted amounts (≈) assume the structure as drawn. Bounds are passed on as bounds.

One may read the MIC as the lowest concentration found to suppress growth. Low values mean a more susceptible organism, high ones a less susceptible organism. On to `O=C(O)c1cn(C2CC2)c2cc(N3CCNCC3)c(F)cc2c1=O` [ciprofloxacin, Ciprofloxacin, reference compound], for which the MIC in experiment [1] stood at 0.4 µM (≈ 0.133 µg/mL); in experiment [2], 0.2 µM (≈ 0.0663 µg/mL); in experiment [3], 0.8 µM (≈ 0.265 µg/mL); with Bacillus subtilis BS01, 0.03 µM (≈ 0.00994 µg/mL); in experiment [4], 0.8 µM (≈ 0.265 µg/mL); in the experiment on MRSA 107352, 1.6 µM (≈ 0.53 µg/mL).

Turning to `COc1c(O)cc(C)cc1Oc1cc(C)cc(O)c1` [Compound 11, 2-methoxyl cordyol C], the MIC in experiment [1] was above 200 µM; in experiment [2], 100 µM (≈ 26 µg/mL); in experiment [3], above 200 µM; against Bacillus subtilis BS01 it was above 200 µM; in experiment [4], above 200 µM; in the experiment on MRSA 107352, above 200 µM.

For orientation: IC50 means the concentration at which inhibition is half-maximal. High values mean weaker potency, low ones greater potency. Compound `O=C1O[C@H]([C@@H](O)CO)C(O)=C1O` [Ascorbic acid, reference compound] returned an IC50 in experiment [5] of 16.7 ± 0.7 µM.

As to `Cc1cc(O)cc2oc3cc(O)cc(C)c3c12` [Compound 10, 3,7-dihydroxy-1,9-dimethyldibenzofuran], the MIC in experiment [1] was determined as 50 µM (≈ 11.4 µg/mL); in experiment [2], 25 µM (≈ 5.71 µg/mL); in experiment [3], 25 µM (≈ 5.71 µg/mL); with Bacillus subtilis BS01 it was 0.1 µM (≈ 0.0228 µg/mL); in experiment [4], 25 µM (≈ 5.71 µg/mL); against MRSA 107352 it was 12.5 µM (≈ 2.85 µg/mL). The MIC in experiment [6] (range over six inhibited bacteria) is 0.1 to 50 µM (≈ 0.0228 to 11.4 µg/mL). The compound also came in with an IC50 in experiment [5] of 48.9 ± 9.8 µM. Besides, the “inhibitory activity against bacteria (in words)” value in experiment [6] (five Gram-positive bacteria (B. subtilis, E. profundum, E. faecalis, S. aureus and MRSA) and one Gram-negative bacterium (A. baumannii)) is given as “displayed inhibitory activity”.

Turning to `CCC(C)C=C(C)C=CC(=O)Cc1cc(O)c(C)c(O)c1C(=O)O` (stereo not shown) [Compound 1, subversin A], the MIC is above 200 µM in experiment [1]; 100 µM (≈ 33.2 µg/mL) in experiment [2]; above 200 µM in experiment [3]; above 200 µM against Bacillus subtilis BS01; above 200 µM in experiment [4]; above 200 µM in the experiment with MRSA 107352.
